Where a name gives a salt, the structure may show the parent alone.
Assays:
[1] = molecular target: α7-subtype of nicotinic receptors (Rattus norvegicus, UniProt Q05941); experiment: biochemical; type: binding
α7-subtype of nicotinic receptors, sequence (Q05941 23-502): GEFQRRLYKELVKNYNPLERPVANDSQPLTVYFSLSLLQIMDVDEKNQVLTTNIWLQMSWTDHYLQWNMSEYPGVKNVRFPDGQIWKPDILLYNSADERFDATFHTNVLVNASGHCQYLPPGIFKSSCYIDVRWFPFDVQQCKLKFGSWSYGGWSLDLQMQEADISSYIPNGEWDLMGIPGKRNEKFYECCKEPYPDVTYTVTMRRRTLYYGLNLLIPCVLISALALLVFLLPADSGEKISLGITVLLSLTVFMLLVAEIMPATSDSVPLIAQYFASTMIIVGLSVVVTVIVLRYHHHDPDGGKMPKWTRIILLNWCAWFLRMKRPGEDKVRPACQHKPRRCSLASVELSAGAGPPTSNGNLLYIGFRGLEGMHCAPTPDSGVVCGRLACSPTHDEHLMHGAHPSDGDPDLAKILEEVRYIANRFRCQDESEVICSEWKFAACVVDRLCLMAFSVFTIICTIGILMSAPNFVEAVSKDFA

Row | SMILES | IC50 [1] | melting point
1 | CN1C2CCCC1CN(c1ccc(-c3ccccc3)nn1)C2 [Compound A1, 9-Methyl-3-(6-phenyl-pyridazin-3-yl)-3,9-diaza-bicyclo[3.3.1]nonane] | < 1000 nM | –
2 | CCN1C2CCCC1CN(c1ccc(-c3ccccc3)nn1)C2 [Compound D1, 9-Ethyl-3-(6-phenyl-pyridazin-3-yl)-3,9-diaza-bicyclo[3.3.1]nonane] | < 1000 nM | –
3 | CN1C2CCCC1CN(c1ccc(-c3ccsc3)nn1)C2 [Compound C1] | < 1000 nM | –
4 | CN1C2CCCC1CN(c1ccc(-c3ccccc3)nn1)C2 (as salt: fumaric acid salt) [Compound A1, 9-Methyl-3-(6-phenyl-pyridazin-3-yl)-3,9-diaza-bicyclo[3.3.1]nonane] | – | 187 to 188 °C
